{
  "source": "patent US10208007B2",
  "about": "“Use of strigolactones and strigolactone analogs for treating proliferative conditions” (The State of Israel, Ministry of Agriculture & Rural …, priority 2011, dated 2019)",
  "key": {"[1]": {"tested_on": "MDA-MB-231 breast cancer cells", "test": "Xenograft tumor model", "assay_type": "in vivo", "settings": "SCID mice, 10 mg/kg iv twice a week, 4 treatments", "procedure": "To establish subcutaneous tumors, actively growing MDA-MB-231 breast cancer cells were harvested and 1.5×10^6 cells in 100 μl PBS were injected into the mammary fat pads of mice (n=15). The lesions were allowed to grow until their average sizes were approximately 4.5 mm×4.5 mm (about 3 weeks). The mice were then randomized into 3 groups for various treatments including vehicle control, and two strigolactone analogs: ST-362 and ST-357. Treatment started at day 1, 10 ppm (10 mg/Kg) twice a week for a total of 4 treatments. ST-362 and ST-357 were administered intravenously (iv). Body weight and tumor measurements were recorded twice weekly. Tumor cross-sectional area was calculated by multiplying the length×width and tumor volume was calculated by cubing the mean value of length and width. Results are summarized and plotted.\nData are expressed as mean±SD. Statistical significance was assessed by one-way ANOVA and Games-Howell Post Hoc test. A value of P<0.05 was considered significant and represents significance compared with untreated controls, unless indicated otherwise. Data was analyzed by Graphpad PRISMS and SPSS."}, "HCT116 cells": {"tested_on": "HCT116 cells", "test": "XTT viability after timed exposure and strigolactone removal", "settings": "Homo sapiens", "experimental": "At each time point the strigolactone analog was removed and the media was replaced with fresh growth media without strigolactone analog. […] In addition, viability of MDA-MB-231 cells was assessed after 24 hours by using an XTT assay (FIG. 9B). […] After 2, 4 or 24 hours the media was removed, cells were washed and media was replaced with growth media minus strigolactone analog."}, "A549": {"tested_on": "A549", "test": "XTT viability assay", "assay_type": "cell-based, human", "settings": "A549, 3 days", "procedure": "(§1) Viability was assayed after 3 days (XTT, ATCC). IC50 concentrations are indicated (Table 3 above)."}, "MDA-MB-436": {"tested_on": "MDA-MB-436", "test": "XTT viability assay", "assay_type": "cell-based, human", "settings": "MDA-MB-436, 3 days", "procedure": "as §1"}, "MDA-MB-231": {"tested_on": "MDA-MB-231", "test": "XTT viability after timed exposure and strigolactone removal", "assay_type": "cell-based, human", "settings": "5 and 10 ppm, XTT at 24 hours", "procedure": "As further detailed herein below in the Experimental section, strigolactones and strigolactone analogs inhibit growth through a G2-phase arrest and cause apoptosis at higher concentrations wherein the GR-24 treatment causes an increase in the percentage of MCF-7 and MDA-MB-231 cells in G2-phase. Cells were treated with strigolactone analogs to determine whether or not they alter cell cycle progression in the same way. Dose dependant increases in the percentage of cells in G2 phase were observed. […] After a total of 24 hours, an XTT assay was carried out."}, "Cyclin B1": {"tested_on": "Cyclin B1", "test": "Western blot analysis of cyclin B1 levels", "assay_type": "cell-based, human", "settings": "DU145, 24 hour treatment, then ALLN 4 or 8 hours"}, "U20S cells": {"tested_on": "U20S cells", "test": "Strigolactone analog induced gene expression changes", "assay_type": "cell-based, human", "settings": "5 ppm", "procedure": "To further elucidate the transcriptional program by which strigolactone analogs may affect growth and survival of cancer cells, U20S cells were treated with ST-362 or MEB-55 (5 ppm) for either 6 or 24 hours to permit early and late gene expression changes to be distinguished. U20S cells were selected based on their enhanced sensitivity to strigolactone treatment (see FIG. 7). […] Up-regulation of cytokines (CCL3L3, GDF15) and growth factors (PGF), and down-regulation of TGFBR11 was also noted. Apoptosis regulating genes were also identified, including DDIT3, BIRC3 and BAG3. DDIT3 encodes a member of the CCAAT/enhancer-binding protein (C/EBP) family of transcription factors and functions as a dominant-negative inhibitor by forming heterodimers with other C/EBP members and preventing their DNA binding activity. DDIT3 is induced by stress, including DNA damage and DDIT3 over-expression can induce cell cycle arrest. After 6 hours, MEB-55 treatment was associated with increased expression of p21cip (CDKN1A), Cyclin F (CCNF), Cyclin A2 (CCNA2) and decreased expression of CDK6, whereas ST-362 induced only a modest down-regulation of Cyclin B1 (CCNB1). Therefore, changes in the expression profile of cell cycle regulators, was not a global hallmark of strigolactone exposure. The only exception was Cyclin G2 (CCNG2) whose expression was elevated in both ST-362 and MEB-55 treatment groups. Cyclin G2 is an unconventional cyclin homolog which is linked to growth inhibition and whose expression is induced by DNA damaging chemotherapeutics."}},
  "note": "Entries after “also recorded” stand apart in the source; their conditions may differ.",
  "data": [
    {"smiles": "CC1=CC(O/C=C2/C(=O)c3c(c4cc(-c5cccs5)ccc4n3C)C2C)OC1=O", "note": "(stereo not shown) [ST-357, (2E)-1,4-dimethyl-2-((4-methyl-5-oxo-2,5-dihydrofuran-2-yloxy)methylene)-7-(thiophen-2-yl)-1,2-dihydrocyclopenta[b]indol-3(4H)-one]", "values": [
      {"measurement": "Mean tumor volume", "setting": "[1]; control 24.2±5.57", "result": "15.9±2.61", "unit": "mm^3"},
      {"measurement": "Tumor growth", "setting": "[1]; p<0.0015", "result": "effective in inhibiting tumor growth"},
      {"measurement": "viability at 10 ppm", "setting": "HCT116 cells; HCT-116, 1 h", "result": 75, "unit": "%"},
      {"measurement": "viability at 20 ppm", "setting": "HCT116 cells; HCT-116, 1 h", "result": 63, "unit": "%"},
      {"measurement": "viability at 20 ppm", "setting": "HCT116 cells; HCT-116, 4 h", "result": 50, "unit": "%"},
      {"measurement": "viability at 20 ppm", "setting": "HCT116 cells; HCT-116, 8 h", "result": 10, "unit": "%"}
    ]},
    {"smiles": "CC1=CC(O/C=C2\\Cc3c(n(C)c4cc(-c5cccs5)ccc34)C2=O)OC1=O", "note": "(racemic) [MEB-55, (±) 2E-4-methyl-2-(4-methyl-5-oxo-2,5-dihydrofuran-2-yloxymethylene)-6-thiophen-2-yl-1,4-dihydro-2H-cyclopenta[b]indol-3-one]", "values": [
      {"measurement": "IC50 at 72 h", "setting": "A549", "result": 6.9, "unit": "ppm"},
      {"measurement": "IC50 at 72 h", "setting": "MDA-MB-436", "result": 8.3, "unit": "ppm"},
      {"measurement": "Cell viability", "setting": "MDA-MB-231; 2 hours exposure", "result": "No significant changes; also recorded: No changes in cell viability"},
      {"measurement": "Cell viability", "setting": "MDA-MB-231; 4 hours exposure, p<0.01", "result": "significant decrease in viability"},
      {"measurement": "Partial rescue of Cyclin B1 levels by ALLN", "setting": "Cyclin B1", "result": 1.3, "unit": "fold"},
      {"measurement": "Fold-Change ABCB1", "setting": "U20S cells; 6 hours", "result": 8.1, "unit": "fold"},
      {"measurement": "Fold-Change AHSA1", "setting": "U20S cells; 6 hours", "result": 2.6, "unit": "fold"},
      {"measurement": "Fold-Change ALDH1B1", "setting": "U20S cells; 6 hours", "result": "−3.1", "unit": "fold"},
      {"measurement": "Fold-Change ATF3", "setting": "U20S cells; 6 hours", "result": 4.0, "unit": "fold"},
      {"measurement": "Fold-Change BAG3", "setting": "U20S cells; 6 hours", "result": 7.7, "unit": "fold"},
      {"measurement": "Fold-Change BIRC3", "setting": "U20S cells; 6 hours", "result": "−3.2", "unit": "fold"},
      {"measurement": "Fold-Change CCNG2", "setting": "U20S cells; 6 hours", "result": 3.1, "unit": "fold"},
      {"measurement": "Fold-Change CLDN12", "setting": "U20S cells; 6 hours", "result": 2.5, "unit": "fold"},
      {"measurement": "Fold-Change CYP24A1", "setting": "U20S cells; 6 hours", "result": "−3.6", "unit": "fold"},
      {"measurement": "Fold-Change DDIT3", "setting": "U20S cells; 6 hours", "result": 14.1, "unit": "fold"},
      {"measurement": "Fold-Change FGF2", "setting": "U20S cells; 6 hours", "result": 2.1, "unit": "fold"},
      {"measurement": "Fold-Change FOXD1", "setting": "U20S cells; 6 hours", "result": "−2.7", "unit": "fold"},
      {"measurement": "Fold-Change FOXO4", "setting": "U20S cells; 6 hours", "result": 2.2, "unit": "fold"},
      {"measurement": "Fold-Change GDF15", "setting": "U20S cells; 6 hours", "result": 19.0, "unit": "fold"},
      {"measurement": "Fold-Change GEM", "setting": "U20S cells; 6 hours", "result": 4.9, "unit": "fold"},
      {"measurement": "Fold-Change HSPA1A", "setting": "U20S cells; 6 hours", "result": 12.4, "unit": "fold"},
      {"measurement": "Fold-Change HSPA1B", "setting": "U20S cells; 6 hours", "result": 12.4, "unit": "fold"},
      {"measurement": "Fold-Change HSPA1L", "setting": "U20S cells; 6 hours", "result": 3.9, "unit": "fold"},
      {"measurement": "Fold-Change HSPA6", "setting": "U20S cells; 6 hours", "result": 158.7, "unit": "fold"},
      {"measurement": "Fold-Change HSPA7", "setting": "U20S cells; 6 hours", "result": 55.7, "unit": "fold"},
      {"measurement": "Fold-Change HSPB8", "setting": "U20S cells; 6 hours", "result": 3.6, "unit": "fold"},
      {"measurement": "Fold-Change PGF", "setting": "U20S cells; 6 hours", "result": 7.0, "unit": "fold"},
      {"measurement": "Fold-Change PPP1R15A", "setting": "U20S cells; 6 hours", "result": 3.7, "unit": "fold"},
      {"measurement": "Fold-Change PTGS2", "setting": "U20S cells; 6 hours", "result": 6.9, "unit": "fold"},
      {"measurement": "Fold-Change SLC3A2", "setting": "U20S cells; 6 hours", "result": 3.4, "unit": "fold"},
      {"measurement": "Fold-Change SLC7A11", "setting": "U20S cells; 6 hours", "result": 2.1, "unit": "fold"},
      {"measurement": "Fold-Change SLC44A2", "setting": "U20S cells; 6 hours", "result": 2.1, "unit": "fold"},
      {"measurement": "Fold-Change TGFBR2", "setting": "U20S cells; 6 hours", "result": "−2.3", "unit": "fold"},
      {"measurement": "Fold-Change ABCA13", "setting": "U20S cells; 24 hours", "result": "−2.6", "unit": "fold"},
      {"measurement": "Fold-Change AMPH", "setting": "U20S cells; 24 hours", "result": "−2.7", "unit": "fold"},
      {"measurement": "Fold-Change BIRC3", "setting": "U20S cells; 24 hours", "result": 2.4, "unit": "fold"},
      {"measurement": "Fold-Change CCL20", "setting": "U20S cells; 24 hours", "result": 11.9, "unit": "fold"},
      {"measurement": "Fold-Change CTGF", "setting": "U20S cells; 24 hours", "result": 2.1, "unit": "fold"},
      {"measurement": "Fold-Change CYR61", "setting": "U20S cells; 24 hours", "result": 2.2, "unit": "fold"},
      {"measurement": "Fold-Change DHRS2", "setting": "U20S cells; 24 hours", "result": "−2.3", "unit": "fold"},
      {"measurement": "Fold-Change DUSP5", "setting": "U20S cells; 24 hours", "result": 3.8, "unit": "fold"},
      {"measurement": "Fold-Change E2F2", "setting": "U20S cells; 24 hours", "result": "−2.2", "unit": "fold"},
      {"measurement": "Fold-Change EGR1", "setting": "U20S cells; 24 hours", "result": 2.7, "unit": "fold"},
      {"measurement": "Fold-Change ESM1", "setting": "U20S cells; 24 hours", "result": 21.2, "unit": "fold"},
      {"measurement": "Fold-Change GDF15", "setting": "U20S cells; 24 hours", "result": 2.2, "unit": "fold"},
      {"measurement": "Fold-Change HSPA5", "setting": "U20S cells; 24 hours", "result": "−2.1", "unit": "fold"},
      {"measurement": "Fold-Change ITGA2", "setting": "U20S cells; 24 hours", "result": 3.6, "unit": "fold"},
      {"measurement": "Fold-Change KIF20A", "setting": "U20S cells; 24 hours", "result": "−2.4", "unit": "fold"},
      {"measurement": "Fold-Change LAMA1", "setting": "U20S cells; 24 hours", "result": 2.1, "unit": "fold"},
      {"measurement": "Fold-Change RN7SK", "setting": "U20S cells; 24 hours", "result": 15.3, "unit": "fold"},
      {"measurement": "Fold-Change SCG5", "setting": "U20S cells; 24 hours", "result": 4.9, "unit": "fold"},
      {"measurement": "Fold-Change SLC7A11", "setting": "U20S cells; 24 hours", "result": 4.1, "unit": "fold"},
      {"measurement": "Fold-Change SNORD3A", "setting": "U20S cells; 24 hours", "result": 4.2, "unit": "fold"},
      {"measurement": "Fold-Change SNORD3C", "setting": "U20S cells; 24 hours", "result": 4.8, "unit": "fold"},
      {"measurement": "Fold-Change SNORD3D", "setting": "U20S cells; 24 hours", "result": 4.8, "unit": "fold"},
      {"measurement": "Fold-Change SPP1", "setting": "U20S cells; 24 hours", "result": 6.6, "unit": "fold"},
      {"measurement": "Fold-Change TGFBI", "setting": "U20S cells; 24 hours", "result": "−2.0", "unit": "fold"},
      {"measurement": "viability at 10 ppm", "setting": "HCT116 cells; HCT-116, 1 h", "result": 75, "unit": "%"},
      {"measurement": "viability at 20 ppm", "setting": "HCT116 cells; HCT-116, 1 h", "result": 68, "unit": "%"},
      {"measurement": "viability at 10 ppm", "setting": "HCT116 cells; HCT-116, 4 h", "result": 18, "unit": "%"},
      {"measurement": "viability at 20 ppm", "setting": "HCT116 cells; HCT-116, 4 h", "result": 0, "unit": "%"}
    ]}
  ]
}
